Experimental data reported in ChEMBL document CHEMBL1949629, “Discovery of a second generation agonist of the orphan G-protein coupled receptor GPR119 with an improved profile” (Bioorg Med Chem Lett, 2012).
Converted amounts (≈) assume the structure as drawn. The source made the active and inactive calls. No cut-off for these calls is given here.

What was measured:
[1] = Solubility in 20% HPbetaCD after 24 hrs; format: physicochemical
[2] = Half life cynomolgus monkey at 25 to 400 mg administered once daily; format: ADME, organism-based, Macaca fascicularis; settings: in vivo
[3] = Solubility in water at pH 2; format: physicochemical
Cynomolgus monkey [4] = experiment: Antidiabetic activity in cynomolgus monkey assessed as blood glucose AUC at 3 mg/kg administered 60 mins prior glucose challenge by oral glucose tolerance test relative to vehicle treated control; format: functional, Macaca fascicularis
in vivo = settings: beagle, dog, po, 7.85 mg/kg
Description: Half life in Beagle dog at 7.85 mg/kg, po

Rattus norvegicus [5] = experiment: Drug metabolism in po dosed rat assessed as 5-methoxy-6-(2-methyl-6-(methylsulfonyl)pyridin-3-ylamino)pyrimidin-4-ol formation; format: ADME, organism-based; settings: in vivo
[6] = Mean residence time in cynomolgus monkey at 10 mg/kg, po; format: ADME, organism-based, Macaca fascicularis; set-up: dose 10 mg/kg, route oral; settings: in vivo
Rattus norvegicus [7] = experiment: Drug concentration in Sprague-Dawley rat measured at initiation of the oral glucose tolerance test at 3 mg/kg; format: ADME, organism-based; set-up: dose 3 mg/kg, route oral; settings: in vivo
[8] = Half life in cynomolgus monkey at 10 mg/kg, po; settings: in vivo
Rattus norvegicus [9] = experiment: Drug metabolism in po dosed rat assessed as 5-methoxy-N-(2-methyl-6-(methylsulfonyl)pyridin-3-yl)-6-(piperidin-4-yloxy)pyrimidin-4-amine formation; format: ADME, organism-based; settings: in vivo
Rattus norvegicus [10] = experiment: Antidiabetic activity in Sprague-Dawley rat assessed as blood glucose AUC at 3 mg/kg administered 60 mins prior glucose challenge by oral glucose tolerance test relative to vehicle treated control; format: functional
[11] = Permeability from apical to basolateral side of human Caco2 cells; format: ADME, cell-based; settings: Caco-2, read-out: permeability
[12] = AUC (0 to infinity) in Beagle dog at 7.85 mg/kg, po; format: ADME, organism-based, Canis lupus familiaris; set-up: time infinity, dose 7.85 mg/kg, route oral; settings: plasma
Rattus norvegicus [13] = species on record: Rattus norvegicus; experiment: Clearance in rat relative to hepatic blood flow; format: ADME, organism-based, Liver; settings: in vivo
Mus musculus [14] = experiment: Antidiabetic activity in fasted C57bl/6j mouse assessed as reduction in AUC of glucose at 10 mg/kg, po administered 30 mins prior glucose challenge by oral glucose tolerance test; format: functional, organism-based; set-up: dose 10 mg/kg
[15] = Cmax in Sprague-Dawley rat at 10 mg/kg, po; format: ADME, organism-based; set-up: dose 10 mg/kg, route oral; settings: in vivo
Cynomolgus monkey [16] = experiment: Drug concentration in cynomolgus monkey measured at initiation of the oral glucose tolerance test at 3 mg/kg; format: ADME, organism-based, Macaca fascicularis; set-up: dose 3 mg/kg, route oral; settings: in vivo
[17] = Tmax in cynomolgus monkey at 10 mg/kg, po; format: ADME, organism-based, Macaca fascicularis; set-up: dose 10 mg/kg, route oral; settings: in vivo
[18] = Elimination half life in dog; settings: in vivo
[19] = Tmax in C57Bl mouse at 10 mg/kg, po; format: ADME, organism-based; set-up: dose 10 mg/kg, route oral; settings: in vivo
[20] = AUC (0 to infinity) in C57Bl mouse at 10 mg/kg, po; format: ADME, organism-based; set-up: time infinity, dose 10 mg/kg, route oral; settings: plasma
[21] = Mean residence time in Sprague-Dawley rat at 10 mg/kg, po; format: ADME, organism-based; set-up: dose 10 mg/kg, route oral; settings: in vivo
Cavia porcellus [22] = experiment: Toxicity in guinea pig assessed as change in heart rate at 5 mg/kg, iv; format: organism-based; set-up: dose 5 mg/kg, route intravenous; settings: in vivo
[23] = molecular target: Voltage-gated inwardly rectifying potassium channel KCNH2 (Homo sapiens, UniProt Q12809); experiment: Inhibition of human ERG
[24] = Cmax in cynomolgus monkey at 10 mg/kg, po; format: ADME, organism-based, Macaca fascicularis; set-up: dose 10 mg/kg, route oral; settings: in vivo
Cavia porcellus [25] = experiment: Toxicity in guinea pig assessed as change in ECG at 5 mg/kg, iv; format: organism-based; set-up: dose 5 mg/kg, route intravenous; settings: in vivo
[26] = Half life in Sprague-Dawley rat at 10 mg/kg, po; settings: in vivo
[27] = Cmax in C57Bl mouse at 10 mg/kg, po; format: ADME, organism-based; set-up: dose 10 mg/kg, route oral; settings: in vivo
Rattus norvegicus [28] = experiment: Drug concentration in ZDF rat measured at initiation of the oral glucose tolerance test at 3 mg/kg; format: ADME, organism-based; set-up: dose 3 mg/kg, route oral; settings: in vivo
[29] = AUC (0 to infinity) in cynomolgus monkey at 10 mg/kg, po; format: ADME, organism-based, Macaca fascicularis; set-up: time infinity, dose 10 mg/kg, route oral; settings: plasma
Cytochrome P450 2C9 = Cytochrome P450 2C9 (Homo sapiens, UniProt P11712); experiment: Inhibition of CYP2C9; format: ADME
[30] = Mean residence time in C57Bl mouse at 10 mg/kg, po; format: ADME, organism-based; set-up: dose 10 mg/kg, route oral; settings: in vivo
[31] = Half life in C57Bl mouse at 10 mg/kg, po; settings: in vivo
Mus musculus [32] = experiment: Antidiabetic activity in fasted C57bl/6j mouse assessed as reduction in AUC of glucose at 1 mg/kg, po administered 30 mins prior glucose challenge by oral glucose tolerance test; format: functional, organism-based; set-up: dose 1 mg/kg
Canis familiaris [33] = species on record: Canis familiaris; experiment: Clearance in dog relative to hepatic blood flow; format: ADME, organism-based, Canis lupus familiaris, Liver; settings: in vivo
[34] = AUC (0 to infinity) in Sprague-Dawley rat at 10 mg/kg, po; format: ADME, organism-based; set-up: time infinity, dose 10 mg/kg, route oral; settings: plasma
Mus musculus [35] = experiment: Antidiabetic activity in ob/ob mouse assessed as blood glucose AUC at 3 mg/kg administered 60 mins prior glucose challenge by oral glucose tolerance test relative to vehicle treated control; format: functional
Rattus norvegicus [36] = experiment: Toxicity in rat assessed as developmental abnormality dosed for 14 days; format: organism-based; settings: in vivo, 336 h
[37] = Mean residence time in Beagle dog at 7.85 mg/kg, po; format: ADME, organism-based, Canis lupus familiaris; set-up: dose 7.85 mg/kg, route oral; settings: in vivo
Rattus norvegicus [38] = experiment: Antidiabetic activity in ZDF rat assessed as blood glucose AUC at 3 mg/kg administered 60 mins prior glucose challenge by oral glucose tolerance test relative to vehicle treated control; format: functional
[39] = Clearance in iv dosed Sprague-Dawley rat; format: ADME, organism-based; settings: in vivo
[40] = Tmax in Sprague-Dawley rat at 10 mg/kg, po; format: ADME, organism-based; set-up: dose 10 mg/kg, route oral; settings: in vivo
[41] = Half life in human liver microsomes; format: ADME, Microsome
[42] = Elimination half life in rat; settings: in vivo
Canis familiaris [43] = experiment: Toxicity in dog assessed as developmental abnormality dosed for 7 days; format: organism-based, Canis lupus familiaris; settings: in vivo, 168 h
[44] = Cmax in Beagle dog at 7.85 mg/kg, po; format: ADME, organism-based, Canis lupus familiaris; set-up: dose 7.85 mg/kg, route oral; settings: in vivo
Cavia porcellus [45] = experiment: Toxicity in guinea pig assessed as mean arterial blood pressure change at 5 mg/kg, iv; format: organism-based; set-up: dose 5 mg/kg, route intravenous; settings: in vivo
[46] = Permeability from basolateral to apical side of human Caco2 cells; format: ADME, cell-based; settings: Caco-2, read-out: permeability
[47] = Solubility in water at pH 7; format: physicochemical; settings: buffer
Rattus norvegicus [48] = experiment: Antidiabetic activity in fasted Sprague-Dawley rat assessed as reduction in AUC of glucose at 3 mg/kg, po administered 30 mins prior glucose challenge by oral glucose tolerance test; format: functional, organism-based; set-up: dose 3 mg/kg
[49] = Half life in rat liver microsomes; format: ADME, Microsome
[50] = Clearance in iv dosed Beagle dog; format: ADME, organism-based, Canis lupus familiaris; settings: in vivo
Rattus norvegicus [51] = experiment: Drug metabolism in po dosed rat assessed as isopropyl 2-hydroxy-4-(5-methoxy-6-(2-methyl-6-(methylsulfonyl)pyridin-3-ylamino)pyrimidin-4-yloxy)piperidine-1-carboxylate formation; format: ADME, organism-based; settings: in vivo
[52] = Clearance in iv dosed Cynomolgus monkey; format: ADME, organism-based, Macaca fascicularis; settings: in vivo
[53] = Tmax in Beagle dog at 7.85 mg/kg, po; format: ADME, organism-based, Canis lupus familiaris; set-up: dose 7.85 mg/kg, route oral; settings: in vivo
Rattus norvegicus [54] = experiment: Antidiabetic activity in fasted Sprague-Dawley rat assessed as reduction in AUC of glucose at 30 mg/kg, po administered 30 mins prior glucose challenge by oral glucose tolerance test; format: functional, organism-based; set-up: dose 30 mg/kg

Chain of Voltage-gated inwardly rectifying potassium channel KCNH2 (Q12809 whole entry): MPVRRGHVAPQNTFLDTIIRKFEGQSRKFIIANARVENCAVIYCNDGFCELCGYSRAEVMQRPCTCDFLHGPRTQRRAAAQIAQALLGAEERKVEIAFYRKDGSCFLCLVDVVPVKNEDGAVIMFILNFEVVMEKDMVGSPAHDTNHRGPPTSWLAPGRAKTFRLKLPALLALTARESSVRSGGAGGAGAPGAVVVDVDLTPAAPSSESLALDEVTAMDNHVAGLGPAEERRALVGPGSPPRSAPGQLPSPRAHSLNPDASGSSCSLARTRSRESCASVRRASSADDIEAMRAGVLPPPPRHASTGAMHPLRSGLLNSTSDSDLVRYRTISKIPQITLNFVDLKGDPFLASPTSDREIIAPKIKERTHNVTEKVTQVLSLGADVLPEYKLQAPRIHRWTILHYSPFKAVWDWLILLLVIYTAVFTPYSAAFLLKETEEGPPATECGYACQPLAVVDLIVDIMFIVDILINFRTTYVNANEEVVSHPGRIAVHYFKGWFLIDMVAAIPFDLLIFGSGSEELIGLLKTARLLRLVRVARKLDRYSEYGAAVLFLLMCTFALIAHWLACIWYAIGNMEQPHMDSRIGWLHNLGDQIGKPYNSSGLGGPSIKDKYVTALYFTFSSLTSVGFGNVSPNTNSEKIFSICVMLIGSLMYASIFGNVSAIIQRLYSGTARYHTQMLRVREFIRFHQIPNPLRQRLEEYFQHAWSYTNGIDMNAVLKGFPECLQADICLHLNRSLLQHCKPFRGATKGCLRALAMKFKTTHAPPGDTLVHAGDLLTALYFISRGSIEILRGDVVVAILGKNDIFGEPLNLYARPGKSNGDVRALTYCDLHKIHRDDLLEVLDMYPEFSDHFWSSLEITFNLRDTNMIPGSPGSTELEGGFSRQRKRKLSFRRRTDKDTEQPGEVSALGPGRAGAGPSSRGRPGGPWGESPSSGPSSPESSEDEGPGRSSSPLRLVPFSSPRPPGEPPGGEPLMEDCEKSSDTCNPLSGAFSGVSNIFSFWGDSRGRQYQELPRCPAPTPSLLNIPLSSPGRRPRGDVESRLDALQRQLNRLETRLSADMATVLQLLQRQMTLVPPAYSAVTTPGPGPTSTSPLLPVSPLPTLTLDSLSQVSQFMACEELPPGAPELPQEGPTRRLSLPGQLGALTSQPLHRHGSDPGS
Chain of Cytochrome P450 2C9 (P11712 whole entry): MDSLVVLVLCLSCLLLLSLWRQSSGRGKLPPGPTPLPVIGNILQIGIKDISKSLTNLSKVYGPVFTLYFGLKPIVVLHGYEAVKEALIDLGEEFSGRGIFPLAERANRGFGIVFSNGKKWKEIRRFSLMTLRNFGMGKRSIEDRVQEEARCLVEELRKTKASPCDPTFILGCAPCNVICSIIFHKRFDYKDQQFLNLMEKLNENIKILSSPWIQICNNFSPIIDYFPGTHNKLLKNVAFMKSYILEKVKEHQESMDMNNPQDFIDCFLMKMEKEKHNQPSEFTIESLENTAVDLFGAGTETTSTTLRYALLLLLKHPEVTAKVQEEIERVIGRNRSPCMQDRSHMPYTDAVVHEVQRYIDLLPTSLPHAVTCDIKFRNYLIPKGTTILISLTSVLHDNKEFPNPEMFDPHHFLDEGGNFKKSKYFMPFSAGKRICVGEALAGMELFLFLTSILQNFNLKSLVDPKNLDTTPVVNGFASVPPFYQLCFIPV

Cc1c(Nc2ccc(S(C)(=O)=O)nc2)ncnc1OC1CCN(C(=O)OC(C)C)CC1
solubility at 24 h [1]: 21.3 mg/mL (≈ 47.4 mM)

Cc1cc(S(C)(=O)=O)ncc1Oc1ncnc(OC2CCN(C(=O)OC(C)C)CC2)c1C
solubility at 24 h [1]: 13.1 mg/mL (≈ 28.2 mM)

Cc1cc(S(C)(=O)=O)ncc1Nc1ncnc(OC2CCN(C(=O)OC(C)C)CC2)c1C
solubility at 24 h [1]: 20.4 mg/mL (≈ 44 mM)

CCc1c(Nc2ccc(S(C)(=O)=O)nc2C)ncnc1OC1CCN(C(=O)OC(C)C)CC1
solubility at 24 h [1]: 24.5 mg/mL (≈ 51.3 mM)

Cc1nc(S(C)(=O)=O)ccc1Nc1ncnc(OC2CCN(C(=O)OC(C)C)CC2)c1C1CC1
solubility at 24 h [1]: 17.7 mg/mL (≈ 36.2 mM)

Cc1nc(S(C)(=O)=O)ccc1Nc1ncnc(OC2CCN(C(=O)OC(C)C)CC2)c1C(F)F
solubility at 24 h [1]: 17.3 mg/mL (≈ 34.6 mM)

CCOc1c(Nc2ccc(S(C)(=O)=O)nc2C)ncnc1OC1CCN(C(=O)OC(C)C)CC1
solubility at 24 h [1]: 3.3 mg/mL (≈ 6.69 mM)

Cc1nc(S(C)(=O)=O)ccc1Nc1ncnc(OC2CCN(C(=O)OC(C)C)CC2)c1OC(F)F
solubility at 24 h [1]: 7.8 mg/mL (≈ 15.1 mM)

Cc1nc(S(C)(=O)=O)ccc1Nc1ncnc(OC2CCN(C(=O)OC(C)C)CC2)c1C#N
solubility at 24 h [1]: 17 mg/mL (≈ 35.8 mM)

CC(CO)OC(=O)N1CCC(Oc2ncnc3c2cnn3-c2ccc(S(C)(=O)=O)cc2F)CC1 (stereo not given)
half-life [2]: 41 h

COc1c(Nc2ccc(S(C)(=O)=O)nc2C)ncnc1OC1CCN(C(=O)OC(C)C)CC1 [ADP-597]
solubility [3]: 0.31 mg/mL (≈ 0.646 mM) | Activity (Cynomolgus monkey [4]): 82.8% | half-life (in vivo): 10.9 h | Drug metabolism (Rattus norvegicus [5]): Active | MRT [6]: 8.4 h | Drug uptake (Rattus norvegicus [7]): 482 ng/mL | half-life [8]: 4.4 h | Drug metabolism (Rattus norvegicus [9]): Active | Activity (Rattus norvegicus [10]): 85.1% | Papp A→B [11]: 26 ×10⁻⁶ cm/s | AUC(0-inf) [12]: 43700 ng·h/mL | CL (Rattus norvegicus [13]): 16% | Activity (Mus musculus [14]): Active | Cmax [15]: 1390 ng/mL | Drug uptake (Cynomolgus monkey [16]): 112 ng/mL | Tmax [17]: 6 h | half-life [18]: 7 h | Tmax [19]: 2 h | AUC(0-inf) [20]: 320000 ng·h/mL | MRT [21]: 6.8 h | Activity (Cavia porcellus [22]): Non-toxic | IC50 [23]: > 10 µM | Cmax [24]: 4800 ng/mL | Activity (Cavia porcellus [25]): Non-toxic | half-life [26]: 4.3 h | Cmax [27]: 25800 ng/mL | Drug uptake (Rattus norvegicus [28]): 1592 ng/mL | AUC(0-inf) [29]: 64200 ng·h/mL | IC50 (Cytochrome P450 2C9): 8 µM | MRT [30]: 7.9 h | solubility at 24 h [1]: 33 mg/mL (≈ 68.8 mM) | half-life [31]: 5.9 h | Activity (Mus musculus [32]): Active | CL (Canis familiaris [33]): 16% | AUC(0-inf) [34]: 12500 ng·h/mL | Activity (Mus musculus [35]): 78.4% | Activity (Rattus norvegicus [36]): Non-toxic | MRT [37]: 10.9 h | Activity (Rattus norvegicus [38]): 72.8% | clearance [39]: 9.67 mL/min/kg | Tmax [40]: 1 h | half-life [41]: > 1 h | half-life [42]: 3 h | Activity (Canis familiaris [43]): Non-toxic | Cmax [44]: 1980 ng/mL | Activity (Cavia porcellus [45]): Non-toxic | Papp B→A [46]: 15 ×10⁻⁶ cm/s | solubility [47]: 0.11 mg/mL (≈ 0.229 mM) | Activity (Rattus norvegicus [48]): Active | half-life [49]: > 1 h | clearance [50]: 0.667 mL/min/kg | Drug metabolism (Rattus norvegicus [51]): Active | clearance [52]: 1.83 mL/min/kg | Tmax [53]: 8 h | Activity (Rattus norvegicus [54]): Active
